According to PMC4564189, “A Genetic Selection for dinB Mutants Reveals an Interaction between DNA Polymerase IV and the Replicative Polymerase That Is Required for Translesion Synthesis” (PLoS Genetics, 2015):
Blank lines part the entries; values can stand above or below the molecule they belong to.

Assays:
[1] = target: T1, Pol IV (E. coli DNA polymerase IV, DinB) (Escherichia coli, UniProt Q47155, T120P); assay: pre-steady-state single-nucleotide primer extension, […] gel assay; type: biochemical; conditions: apparent Kd for dNTP, kpol given as kcat, 200 nM DNA, 400 nM polymerase, 10 mM MgCl2, pH 7.5, 25°C
T1 construct: full-length, untagged as far as told, pET11a plasmid pRM112 (T7 promoter) and mutant derivatives, purified from E. coli; 351 residues

[2] = target: T2, Pol IV (E. coli DNA polymerase IV, DinB) (Escherichia coli, UniProt Q47155); assay: as above; type: biochemical; conditions: apparent Kd for dNTP, kpol given as kcat, 200 nM DNA, 400 nM polymerase, 10 mM MgCl2, pH 7.5, 25°C
T2 construct: full-length, untagged as far as told, pET11a plasmid pRM112 (T7 promoter) and mutant derivatives, purified from E. coli; 351 residues
T2 sequence (Q47155 1-351): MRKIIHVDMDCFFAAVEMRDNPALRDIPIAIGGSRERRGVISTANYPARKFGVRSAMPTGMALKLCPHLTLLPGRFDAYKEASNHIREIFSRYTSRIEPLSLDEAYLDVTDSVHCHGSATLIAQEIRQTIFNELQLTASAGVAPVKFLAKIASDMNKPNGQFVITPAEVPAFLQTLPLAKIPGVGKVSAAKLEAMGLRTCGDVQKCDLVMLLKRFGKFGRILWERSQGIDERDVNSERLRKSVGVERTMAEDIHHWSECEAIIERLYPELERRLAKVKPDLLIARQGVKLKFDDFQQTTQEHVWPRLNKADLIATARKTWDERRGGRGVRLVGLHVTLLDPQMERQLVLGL

[3] = target: Pol III core complex (Pol IIIαεθ) (E. coli) (UniProt P10443)
[4] = undamaged template 13/20G (opposite dG)
[5] = undamaged template 13/20A (opposite dA)

T1 sequence (Q47155 whole entry T120P): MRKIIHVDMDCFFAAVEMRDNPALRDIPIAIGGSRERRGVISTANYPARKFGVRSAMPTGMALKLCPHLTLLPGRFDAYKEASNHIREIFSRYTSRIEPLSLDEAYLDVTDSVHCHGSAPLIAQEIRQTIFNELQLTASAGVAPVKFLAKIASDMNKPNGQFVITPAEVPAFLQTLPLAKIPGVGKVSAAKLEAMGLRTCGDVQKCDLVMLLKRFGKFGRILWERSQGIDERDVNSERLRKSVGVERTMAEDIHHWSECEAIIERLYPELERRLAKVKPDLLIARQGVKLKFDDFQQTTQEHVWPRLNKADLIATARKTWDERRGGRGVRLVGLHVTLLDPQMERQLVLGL

Kd ([1]; template 13/20Sp (opposite abasic site), above highest dNTP tested (500 μM range)): 460 ± 230 µM
Molecule: Nc1ncnc2c1ncn2[C@H]1C[C@H](O)[C@@H](COP(=O)(O)OP(=O)(O)OP(=O)(O)O)O1 [dATP]

Molecule: Nc1ccn([C@H]2C[C@H](O)[C@@H](COP(=O)(O)OP(=O)(O)OP(=O)(O)O)O2)c(=O)n1 [dCTP]
Kd [1, 4]: 14 ± 3.3 µM
Kd [2, 4]: > 300 µM

Molecule: Cc1cn([C@H]2C[C@H](O)[C@@H](COP(=O)(O)OP(=O)(O)OP(=O)(O)O)O2)c(=O)[nH]c1=O [dTTP]
Kd [1, 5]: 39 ± 9 µM
Kd [2, 5]: 207 ± 21 µM

Pol III processivity in the single-molecule primer extension assay; 900 nM Pol IV^CD (180-fold molar excess) with 5 nM Pol IIIαεθ, β clamp and τ3δδ'ψχ clamp loader (of the processivity without Pol IV^CD) [3]: 0.5
B1: Pol IV catalytic domain (Pol IV^CD; residues 1–230) (domain or fragment)
chain: MRKIIHVDMDCFFAAVEMRDNPALRDIPIAIGGSRERRGVISTANYPARKFGVRSAMPTGMALKLCPHLTLLPGRFDAYKEASNHIREIFSRYTSRIEPLSLDEAYLDVTDSVHCHGSATLIAQEIRQTIFNELQLTASAGVAPVKFLAKIASDMNKPNGQFVITPAEVPAFLQTLPLAKIPGVGKVSAAKLEAMGLRTCGDVQKCDLVMLLKRFGKFGRILWERSQGID
